Measured values as given in PMC3842914, “Meleagrin, a New FabI Inhibitor from Penicillium chryosogenum with at Least One Additional Mode of Action” (PLoS ONE, 2013).
≈ marks a conversion by molar mass, not a printed value. Read-outs that look alike come from different tables or passages of the source.

Key:
E. coli EW1b = experiment: Overexpression assay, MIC for pump-negative (tolC) E. coli EW1b; assay type: cell-based; settings: Escherichia coli
Procedure: (§1) Whole-cell antimicrobial activity was determined by broth microdilution as described previously. The test strains except for S. pneumoniae were grown to mid-log phase in Mueller–Hinton broth and diluted 1,000-fold in the same medium. Cells (10^5/mL) were inoculated into Mueller–Hinton broth and dispensed at 0.2 mL/well into a 96-well microtiter plate. S. pneumoniae was grown in tryptic soy broth supplemented with 5% sheep blood. MICs were determined in triplicate by serial 2-fold dilutions of test compounds. […] Bacterial growth was determined by measuring the absorption at 650 nm by using a microtiter ELISA reader.
(§2) An overexpression assay using S. aureus RN4220, S. aureus RN4220 (pE194), and S. aureus RN4220 (pE194-fabI) was conducted to perform target validation of FabI inhibitors as described previously. Additionally, both fabI- and fabK-overexpressing E. coli were constructed to test a multitarget effect of the compounds. The wild-type fabI gene from the genomic DNA of E. coli W3110 was amplified by PCR by using the primers 5′-[…]-3′ and 5′-[…]-3′. The wild-type fabK gene from the genomic DNA of S. pneumoniae KCTC 5412 was amplified by PCR by using the primers 5′-[…]-3′ and 5′-[…] […]-3′. The resulting products were cloned into the pBAD-TOPO TA expression vector (Invitrogen, Carlsbad, CA, USA) to yield the pBAD-fabI and pBAD-fabK recombinant plasmids, which placed the expression of the genes fabI and fabK, respectively, under the control of the arabinose promoter. Recombinant pBAD-fabI and pBAD-fabK were then introduced into the pump-negative (tolC) E. coli EW1b via electroporation to generate E. coli EW1b (pBAD-fabI) and E. coli EW1b (pBAD-fabK), respectively.

E. coli EW1b(pBAD) = experiment: Overexpression assay, MIC for vector-containing E. coli EW1b (pBAD); assay type: cell-based; settings: Escherichia coli
Procedure: as §1, §2

E. coli EW1b(pBAD-fabK) = experiment: Overexpression assay, MIC for fabK-overexpressing E. coli EW1b (pBAD-fabK); assay type: cell-based; settings: Escherichia coli
Procedure: as §1, §2

E. coli EW1b(pBAD-fabI) = experiment: Overexpression assay, MIC for fabI-overexpressing E. coli EW1b (pBAD-fabI); assay type: cell-based; settings: Escherichia coli
Procedure: as §1, §2

S. aureus RN4220 [1] = experiment: MIC by broth microdilution, S. aureus RN4220 (wild type); assay type: cell-based, Staphylococcus aureus; settings: Staphylococcus aureus; S. aureus RN4220 (wild type)
Procedure: as §1

S. aureus FabI = target: T1, S. aureus FabI (Staphylococcus aureus, UniProt Q6GI75); experiment: S. aureus FabI enzyme assay (NADPH use at 340 nm, t-o-NAC thioester substrate); assay type: biochemical
T1 construct: made in house
T1 sequence (Q6GI75 1-256): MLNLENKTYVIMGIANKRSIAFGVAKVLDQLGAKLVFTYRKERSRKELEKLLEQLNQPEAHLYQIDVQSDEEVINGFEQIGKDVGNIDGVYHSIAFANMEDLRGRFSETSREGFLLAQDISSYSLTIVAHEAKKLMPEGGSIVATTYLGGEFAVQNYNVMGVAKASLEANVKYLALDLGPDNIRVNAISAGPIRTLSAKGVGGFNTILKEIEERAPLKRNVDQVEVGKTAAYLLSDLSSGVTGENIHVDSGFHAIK
Text: (§3) S. aureus FabI and E. coli FabI enzymes were cloned, overexpressed, and purified as described previously. The wild-type fabK gene was amplified by PCR from genomic DNA obtained from Streptococcus pneumoniae KCTC 5412 by using the primers 5′-[…]-3′ and 5′-[…]-3′, which contained NdeI and XhoI restriction sites, respectively. After the DNA sequence was confirmed, the gene was cloned into the pET22b vector (Novagen, Gibbstown, NJ, USA). The construct was transformed into E. coli BL21 (DE3) for expression following induction with isopropylthiogalactoside. The C-terminal His-tagged protein was purified as described previously. Assays were conducted in half-area, 96-well microtiter plates. The compounds were dissolved in DMSO and evaluated in 100-μL assay mixtures containing components specific for each enzyme (see below). Reduction of the trans-2-octenoyl N-acetylcysteamine (t-o-NAC thioester) substrate analog was measured spectrophotometrically following the utilization of NADH or NADPH at 340 nm at 30°C for the linear period of the assay. S. aureus FabI assays contained 50 mM sodium acetate (pH 6.5), 200 μM t-o-NAC thioester, 200 μM NADPH, and 150 nM S. aureus FabI.
(§4) NADH was used as a cofactor rather than NADPH for the E. coli FabI assay. Substrate concentrations used for the Lineweaver–Burk plot were 100, 200, 300, and 400 μM, whereas the concentrations of the cofactor were 100, 200, 400, and 600 μM. The rate of decrease in the amount of NADPH in each reaction was measured with a microtiter enzyme-linked immunosorbent assay (ELISA) reader by using the SOFTmax PRO software (Molecular Devices, Sunnyvale, CA, USA). The inhibitory activity was calculated according to the following formula: % of inhibition = 100× [1− (rate in the presence of compound/rate in the untreated control)]. IC50 values were calculated by fitting the data to a sigmoid equation. An equal volume of DMSO solvent was used for the untreated control. FabK assays contained 100 mM sodium acetate (pH 6.5), 2% glycerol, 200 mM NH4Cl, 50 µM t-o-NAC thioester, 200 µM NADH, and 150 nM S. pneumoniae FabK.

E. coli FabI = target: T2, E. coli FabI (Escherichia coli, UniProt P0AEK4); experiment: E. coli FabI enzyme assay (NADH as cofactor); assay type: biochemical
T2 construct: made in house
T2 sequence (P0AEK4 whole entry): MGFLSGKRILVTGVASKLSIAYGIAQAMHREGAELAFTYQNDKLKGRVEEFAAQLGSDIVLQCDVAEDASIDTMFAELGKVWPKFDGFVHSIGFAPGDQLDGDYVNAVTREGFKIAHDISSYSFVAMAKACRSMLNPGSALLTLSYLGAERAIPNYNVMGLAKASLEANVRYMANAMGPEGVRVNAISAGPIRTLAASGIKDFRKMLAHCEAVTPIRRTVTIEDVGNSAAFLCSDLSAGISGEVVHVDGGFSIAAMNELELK
Text: as §3, §4

E. coli KCTC 1924 = experiment: MIC by broth microdilution, E. coli KCTC 1924; assay type: cell-based; settings: Escherichia coli, KCTC1924, read-out: MIC E. coli
Procedure: as §1

S. pneumoniae KCTC 3932 [2] = experiment: MIC by broth microdilution, S. pneumoniae KCTC 3932; assay type: cell-based; settings: Streptococcus pneumoniae, KCTC3932, read-out: MIC S. pneumoniae
Procedure: as §1

S. pneumoniae FabK = target: T3, S. pneumoniae FabK (Streptococcus pneumoniae, UniProt Q9FBC5); experiment: S. pneumoniae FabK enzyme assay; assay type: biochemical
T3 sequence (Q9FBC5 1-324): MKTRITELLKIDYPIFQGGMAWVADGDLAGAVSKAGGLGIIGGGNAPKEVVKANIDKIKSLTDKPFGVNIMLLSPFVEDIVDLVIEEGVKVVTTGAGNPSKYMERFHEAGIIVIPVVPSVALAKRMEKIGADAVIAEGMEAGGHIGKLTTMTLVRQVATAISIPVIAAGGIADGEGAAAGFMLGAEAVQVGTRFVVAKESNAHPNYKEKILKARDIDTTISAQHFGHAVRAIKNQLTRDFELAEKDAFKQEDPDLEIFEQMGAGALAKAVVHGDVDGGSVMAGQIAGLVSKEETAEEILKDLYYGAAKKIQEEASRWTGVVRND
Text: as §3, §4

[3] = tested on: S. aureus RN4220 (pE194-fabI); experiment: Overexpression assay, MIC for fabI-overexpressing S. aureus RN4220 (pE194-fabI); assay type: cell-based; settings: Staphylococcus aureus, read-out: MIC S. aureus (pE194-fabI)
Procedure: as §1, §2

S. aureus RN4220 (pE194) = experiment: Overexpression assay, MIC for vector-containing S. aureus RN4220 (pE194); assay type: cell-based; settings: Staphylococcus aureus, read-out: MIC S. aureus (pE194)
Procedure: as §1, §2

S. aureus RN4220 [4] = experiment: Inhibition of macromolecular biosynthesis (radiolabeled precursor incorporation) in S. aureus; assay type: cell-based, Staphylococcus aureus; settings: drugs at 2 times the MIC
Procedure: (§5) To monitor the effects of compound 1 on lipid, DNA, RNA, protein, and cell wall biosynthesis, its effects on the incorporation of [1-^14C] acetate (50 mCi/mmol), [2-^14C] thymidine (59.8 mCi/mmol), [U-^14C] uridine (539 mCi/mmol), L-[U-^14C] leucine (306 mCi/mmol) or L-[U-^14C] isoleucine (329 mCi/mmol), and N-acetyl-D-[1-^14C] glucosamine (58.1 mCi/mmol) into S. aureus and S. pneumoniae were measured as described previously. S. aureus was exponentially grown to an A650 of 0.2 in Mueller–Hinton broth. S. pneumoniae was grown in tryptic soy broth supplemented with 5% sheep blood. […] An equal volume of DMSO solvent was added to the untreated control. After incubation with the radiolabeled precursors at 37°C for 1 h, followed by centrifugation, the cell pellets were washed twice with PBS buffer. After acetate incorporation, the total cellular lipids were extracted with chloroform-methanol-water. The incorporated radioactivity in the chloroform phase was measured by scintillation counting. For the other precursors, incorporation was terminated by adding 10% (w/v) TCA and cooling on ice for 20 min. The precipitated material was collected on Whatman GF/C glass microfiber filters, washed with TCA and ethanol, dried, and counted using a scintillation counter. The total counts incorporated at 1 h of incubation without inhibitors ranged from >7,000 for [U-^14C] uridine to <13,000 for [1-^14C] acetate. […] In all experiments, known antibacterial agents were included as positive controls.

S. pneumoniae KCTC 3932 [5] = experiment: Inhibition of macromolecular biosynthesis (radiolabeled precursor incorporation) in S. pneumoniae; assay type: cell-based, Streptococcus pneumoniae; settings: drugs at 2 times the MIC
Procedure: as §5

[6] = read-out: MIC E. coli EW1b (+) Ara
[7] = read-out: MIC E. coli EW1b (−) Ara
[8] = read-out: MIC E. coli EW1b(pBAD) (+) Ara
[9] = read-out: MIC E. coli EW1b(pBAD) (−) Ara
[10] = read-out: MIC E. coli EW1b(pBAD-fabK) (+) Ara
[11] = read-out: MIC E. coli EW1b(pBAD-fabK) (−) Ara
[12] = read-out: MIC E. coli EW1b(pBAD-fabI) (+) Ara
[13] = read-out: MIC E. coli EW1b(pBAD-fabI) (−) Ara
[14] = S. aureus FabI, read-out: IC50 saFabI

| Compound | MIC (E. coli EW1b; [6]) | MIC (E. coli EW1b; [7]) | MIC (E. coli EW1b(pBAD); [8]) | MIC (E. coli EW1b(pBAD); [9]) | MIC (E. coli EW1b(pBAD-fabK); [10]) | MIC (E. coli EW1b(pBAD-fabK); [11]) | MIC (E. coli EW1b(pBAD-fabI); [12]) | MIC (E. coli EW1b(pBAD-fabI); [13]) | MIC (S. aureus RN4220 [1]) | MIC [3] | IC50 (S. aureus FabI; [14]) | MIC (S. aureus RN4220 (pE194)) | further results |
| --- | --- | --- | --- | --- | --- | --- | --- | --- | --- | --- | --- | --- | --- |
| CCCCC[C@H](CC(=O)NO)C(=O)N[C@H](C(=O)N1CCC[C@H]1CO)C(C)C [Actinonin] | 1 mg/L (≈ 2.59 µM) | 1 mg/L (≈ 2.59 µM) | 1 mg/L (≈ 2.59 µM) | 1 mg/L (≈ 2.59 µM) | 1 mg/L (≈ 2.59 µM) | 1 mg/L (≈ 2.59 µM) | 1 mg/L (≈ 2.59 µM) | 1 mg/L (≈ 2.59 µM) | – | – | – | – | – |
| CC1(C)S[C@@H]2[C@H](NC(=O)[C@H](N)c3ccccc3)C(=O)N2[C@H]1C(=O)O [Ampicillin] | 1 mg/L (≈ 2.86 µM) | 1 mg/L (≈ 2.86 µM) | > 125 mg/L | > 125 mg/L | > 125 mg/L | > 125 mg/L | > 125 mg/L | > 125 mg/L | – | – | – | – | – |
| C=CC(C)(C)C12C=C(O)C(=O)N3/C(=C/c4cnc[nH]4)C(=O)NC31Nc1ccccc12 (centres unmarked) [Compound 2, glandicolin A] | – | – | – | – | – | – | – | – | 64 mg/L (≈ 159 µM) | – | – | – | IC50 (S. aureus FabI): 54.6 µM; IC50 (E. coli FabI): 49.7 µM; MIC (E. coli KCTC 1924): 64 mg/L (≈ 159 µM); MIC (S. pneumoniae KCTC 3932 [2]): 64 mg/L (≈ 159 µM); IC50 (S. pneumoniae FabK): > 200 µM |
| CC[C@H]1OC(=O)[C@H](C)[C@@H](O[C@H]2C[C@@](C)(OC)[C@@H](O)[C@H](C)O2)[C@H](C)[C@@H](O[C@@H]2O[C@H](C)C[C@H](N(C)C)[C@H]2O)[C@](C)(O)C[C@@H](C)C(=O)[C@H](C)[C@@H](O)[C@]1(C)O [Erythromycin, reference compound] | – | – | – | – | – | – | – | – | 0.5 mg/L (≈ 0.681 µM) | 64 mg/L (≈ 87.2 µM) | > 100 µM | 64 mg/L (≈ 87.2 µM) | – |
| CCn1cc(C(=O)O)c(=O)c2cc(F)c(N3CCNCC3)cc21 [Norfloxacin, reference compound] | – | – | – | – | – | – | – | – | 1 mg/L (≈ 3.13 µM) | 1 mg/L (≈ 3.13 µM) | > 100 µM | 1 mg/L (≈ 3.13 µM) | Inhibition of precursor incorporation, [2-14C] Thymidine (S. aureus RN4220 [4]): 79%; Inhibition of precursor incorporation, [2-14C] Thymidine (S. pneumoniae KCTC 3932 [5]): 83% |
